Measured values: patent publication US20120130146A1, “CONTINUOUS ADMINISTRATION OF CILENGITIDE IN CANCER TREATMENTS” (Merck Patent GmbH, priority 2009, published 2012)
Several values for one entry are separate records, joined by “and”; a condition that tells them apart may be missing. Identical values can stand only once.

Test: Continuous infusion study pharmacokinetics (plasma)
Assay type: in vivo, human
Conditions: for EMD 121974 Concentrations / CL / V / ke / Css: individual subjects; for CL: CL=Rate/Css; for V, Mean / ke, Mean / V: t1/2 = 4 hours; for V: V=CL/ke; for ke: for t1/2 = 4 hours; for Css: mean of 168 h to 506 h values per patient
Protocol: Patients with solid tumors received a continuous infusion of 1 mg/h, 2 mg/h, 4 mg/h, 8 mg/h or 12 mg/h. with a weekly change of infusion bag.
Blood samples were taken on Day 1 (first dose) at pre-dose and 2 h after start of infusion and then weekly just before change of infusion bag and 2 hours thereafter for the first 4 weeks.
The following pharmacokinetic parameters were derived at Merck KGaA. Darmstadt, Germany, by mathematical methods using Kinetica Version 4.1.1.
CL the total body clearance of EMD 121974 from plasma Css plasma concentration at steady state ke elimination rate constant Rate infusion rate t1/2, half life V Volume of distribution
Css, the plasma concentration at steady state, has been estimated by the arithmetic mean of all concentration values from time point 168 h to 506 h per patient.
From Css and t1/2 the PK parameters CL, ke and V were calculated as follows: […]

[1] = Rate 1 mg/h, listed as EMD 121974
[2] = Rate 2 mg/h, listed as EMD 121974
[3] = Rate 4 mg/h, listed as EMD 121974
[4] = Rate 8 mg/h, listed as EMD 121974

For CC(C)[C@H]1C(=O)N[C@@H](CCCN=C(N)N)C(=O)NCC(=O)N[C@@H](CC(=O)O)C(=O)N[C@H](Cc2ccccc2)C(=O)N1C [Cilengitide, cyclo-(Arg-Gly-Asp-DPhe-NMeVal)], the “Mean values for half-life, clearance, and volume of distribution across dose levels” value (12 mg/h dose level and below) was “comparable across dose levels”, the “EMD 121974 Concentrations” value (Rate 1 mg/h, 0 h (pre-dose)) was “Undetectable” and the “EMD 121974 Concentrations” value (Rate 1 mg/h, 2 h, listed as EMD 121974) was 42.90 ng/mL and Undetectable. The “EMD 121974 Concentrations” value (Rate 1 mg/h, 168 h, listed as EMD 121974) was 240.00 ng/mL, the “EMD 121974 Concentrations” value (Rate 1 mg/h, 170 h, listed as EMD 121974) was 156.00 ng/mL and 10.30 ng/mL and the “EMD 121974 Concentrations” value (Rate 1 mg/h, 336 h, listed as EMD 121974) was 324.00 ng/mL and 172.00 ng/mL. For the same compound, the “EMD 121974 Concentrations” value (Rate 1 mg/h, 338 h, listed as EMD 121974) was 321.00 ng/mL and 153.00 ng/mL, the CL [1] was 3.84 L/h and 10.17 L/h and 10.93 L/h and the “V, Mean” value (Rate 1 mg/h) was 48.0 L. For the same compound, the “ke, Mean” value (Rate 1 mg/h) was 0.173 h⁻¹, the V [1] was 22.2 L and 58.7 L and 63.1 L and the ke (Rate 1 mg/h) was 0.173 h⁻¹. For the same compound, the Css [1] was 260.3 ng/mL and 98.4 ng/mL and 91.5 ng/mL, the “EMD 121974 Concentrations” value (Rate 2 mg/h, 0 h (pre-dose)) was “Undetectable” and the “EMD 121974 Concentrations” value (Rate 2 mg/h, 2 h, listed as EMD 121974) was 162.00 ng/mL and Undetectable. For the same compound, the “EMD 121974 Concentrations” value (Rate 2 mg/h, 168 h, listed as EMD 121974) was 189.00 ng/mL and 498.00 ng/mL, the “EMD 121974 Concentrations” value (Rate 2 mg/h, 170 h) was 316.00 ng/mL and the “EMD 121974 Concentrations” value (Rate 2 mg/h, 170 h, listed as EMD 121974) was 244.00 ng/mL. For the same compound, the “EMD 121974 Concentrations” value (Rate 2 mg/h, 336 h, listed as EMD 121974) was 467.00 ng/mL and 523.00 ng/mL, the “EMD 121974 Concentrations” value (Rate 2 mg/h, 338 h, listed as EMD 121974) was 327.00 ng/mL and 392.00 ng/mL and the “EMD 121974 Concentrations” value (Rate 2 mg/h, 504 h, listed as EMD 121974) was 268.00 ng/mL and 485.00 ng/mL. The “EMD 121974 Concentrations” value (Rate 2 mg/h, 506 h, listed as EMD 121974) was 247.00 ng/mL and 427.00 ng/mL, the CL [2] was 4.54 L/h and the “V, Mean” value (Rate 2 mg/h) was 33.0 L. The “ke, Mean” value (Rate 2 mg/h) was 0.173 h⁻¹, the V [2] was 39.8 L and 26.2 L and the ke (Rate 2 mg/h) was 0.173 h⁻¹. For the same compound, the Css [2] was 290.3 ng/mL and 440.2 ng/mL, the “EMD 121974 Concentrations” value (Rate 4 mg/h, 0 h (pre-dose)) was “Undetectable” and the “EMD 121974 Concentrations” value (Rate 4 mg/h, 2 h, listed as EMD 121974) was 228.00 ng/mL and 303.00 ng/mL and 454.00 ng/mL. The “EMD 121974 Concentrations” value (Rate 4 mg/h, 168 h, listed as EMD 121974) was 467.00 ng/mL and 517.00 ng/mL and 894.00 ng/mL, the “EMD 121974 Concentrations” value (Rate 4 mg/h, 170 h, listed as EMD 121974) was 408.00 ng/mL and 372.00 ng/mL and 843.00 ng/mL and 439.00 ng/mL and the “EMD 121974 Concentrations” value (Rate 4 mg/h, 336 h, listed as EMD 121974) was 606.00 ng/mL and 847.00 ng/mL. The “EMD 121974 Concentrations” value (Rate 4 mg/h, 338 h, listed as EMD 121974) was 283.00 ng/mL and 644.00 ng/mL and 711.00 ng/mL and 597.00 ng/mL, the “EMD 121974 Concentrations” value (Rate 4 mg/h, 504 h, listed as EMD 121974) was 1170.00 ng/mL and 524.00 ng/mL and 482.00 ng/mL and 485.00 ng/mL and the “EMD 121974 Concentrations” value (Rate 4 mg/h, 506 h, listed as EMD 121974) was 776.00 ng/mL and 649.00 ng/mL and 618.00 ng/mL. For the same compound, the CL [3] was 7.51 L/h and 5.96 L/h and 6.19 L/h, the “V, Mean” value (Rate 4 mg/h) was 37.7 L and the “ke, Mean” value (Rate 4 mg/h) was 0.173 h⁻¹. The V [3] was 37.2 L and 43.3 L and 34.4 L and 35.7 L, the ke (Rate 4 mg/h) was 0.173 h⁻¹ and the Css [3] was 620.8 ng/mL and 532.6 ng/mL and 671.3 ng/mL and 646.7 ng/mL. The “EMD 121974 Concentrations” value (Rate 8 mg/h, 0 h (pre-dose)) was “Undetectable”, the “EMD 121974 Concentrations” value (Rate 8 mg/h, 2 h, listed as EMD 121974) was 603.00 ng/mL and 445.00 ng/mL and 462.00 ng/mL and the “EMD 121974 Concentrations” value (Rate 8 mg/h, 168 h, listed as EMD 121974) was 1310.00 ng/mL and 881.00 ng/mL and 2190.00 ng/mL. For the same compound, the “EMD 121974 Concentrations” value (Rate 8 mg/h, 170 h, listed as EMD 121974) was 862.00 ng/mL and 958.00 ng/mL and 1820.00 ng/mL, the “EMD 121974 Concentrations” value (Rate 8 mg/h, 336 h) was 525.00 ng/mL and the “EMD 121974 Concentrations” value (Rate 8 mg/h, 338 h, listed as EMD 121974) was 424.00 ng/mL and 1520.00 ng/mL. For the same compound, the “EMD 121974 Concentrations” value (Rate 8 mg/h, 504 h, listed as EMD 121974) was 1610.00 ng/mL and 1440.00 ng/mL and 1830.00 ng/mL, the “EMD 121974 Concentrations” value (Rate 8 mg/h, 506 h, listed as EMD 121974) was 1590.00 ng/mL and 771.00 ng/mL and 1500.00 ng/mL and the CL [4] was 5.96 L/h and 9.60 L/h and 4.51 L/h. The “V, Mean” value (Rate 8 mg/h) was 38.6 L, the “ke, Mean” value (Rate 8 mg/h) was 0.173 h⁻¹ and the V [4] was 34.4 L and 55.4 L and 26.1 L. The ke (Rate 8 mg/h) was 0.173 h⁻¹, the Css [4] was 1343.0 ng/mL and 833.2 ng/mL and 1772.0 ng/mL and the “EMD 121974 Concentrations” value (Rate 12 mg/h, 0 h (pre-dose)) was “Undetectable”. For the same compound, the “EMD 121974 Concentrations” value (Rate 12 mg/h, 2 h, listed as EMD 121974) was 722.00 ng/mL and 303.00 ng/mL and 472.00 ng/mL, the “EMD 121974 Concentrations” value (Rate 12 mg/h, 168 h, listed as EMD 121974) was 777.00 ng/mL and 2550.00 ng/mL and 1980.00 ng/mL and the “EMD 121974 Concentrations” value (Rate 12 mg/h, 170 h, listed as EMD 121974) was 1130.00 ng/mL and 1770.00 ng/mL and 1340.00 ng/mL. The “EMD 121974 Concentrations” value (Rate 12 mg/h, 336 h, listed as EMD 121974) was 4280.00 ng/mL and 1250.00 ng/mL and 1790.00 ng/mL.
